Test results from the supplement of paper PMC10307832.

How the values were obtained:
Assay in all cases: relative viability (nuclei count vs DMSO), 5 days (fraction); higher = more cells survive
Omipalisib + Navitoclax = compound: COc1ncc(-c2ccc3nccc(-c4ccnnc4)c3c2)cc1NS(=O)(=O)c1ccc(F)cc1F [Omipalisib] + CC1(C)CCC(c2ccc(Cl)cc2)=C(CN2CCN(c3ccc(C(=O)NS(=O)(=O)c4ccc(N[C@H](CCN5CCOCC5)CSc5ccccc5)c(S(=O)(=O)C(F)(F)F)c4)cc3)CC2)C1 [Navitoclax] (partner 0.5 µM)
Summary of the method: (§1)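 Lung cancer cell lines in 1536-well plates were dosed by pin tool the day after seeding, either with one drug alone or with a fixed anchor-drug dose plus five library-drug doses (not always all listed) in √10 steps. After 5 days, cells were fixed and their nuclei stained in one step (final 0.05% Triton X-100, 1% formaldehyde, 1 ug/ml Hoechst), then counted on 4× images. Relative viability is the nuclei count in treated wells divided by that in vehicle wells. Values are medians of duplicate plates.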

Omipalisib + Pictilisib = compound: COc1ncc(-c2ccc3nccc(-c4ccnnc4)c3c2)cc1NS(=O)(=O)c1ccc(F)cc1F [Omipalisib] + CS(=O)(=O)N1CCN(Cc2cc3nc(-c4cccc5[nH]ncc45)nc(N4CCOCC4)c3s2)CC1 [Pictilisib] (partner 1 µM)
Summary of the method: as §1

Omipalisib + Alpelisib = compound: COc1ncc(-c2ccc3nccc(-c4ccnnc4)c3c2)cc1NS(=O)(=O)c1ccc(F)cc1F [Omipalisib] + Cc1nc(NC(=O)N2CCC[C@H]2C(N)=O)sc1-c1ccnc(C(C)(C)C(F)(F)F)c1 [Alpelisib] (partner 2 µM)
Summary of the method: as §1

Omipalisib + Linsitinib = compound: COc1ncc(-c2ccc3nccc(-c4ccnnc4)c3c2)cc1NS(=O)(=O)c1ccc(F)cc1F [Omipalisib] + C[C@]1(O)C[C@@H](c2nc(-c3ccc4ccc(-c5ccccc5)nc4c3)c3c(N)nccn32)C1 [Linsitinib] (partner 1 µM)
Summary of the method: as §1

Omipalisib + Vorinostat = compound: COc1ncc(-c2ccc3nccc(-c4ccnnc4)c3c2)cc1NS(=O)(=O)c1ccc(F)cc1F [Omipalisib] + O=C(CCCCCCC(=O)Nc1ccccc1)NO [Vorinostat] (partner 1 µM)
Summary of the method: as §1

Omipalisib = compound: COc1ncc(-c2ccc3nccc(-c4ccnnc4)c3c2)cc1NS(=O)(=O)c1ccc(F)cc1F [Omipalisib]
Summary of the method: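 Cells of lung cancer lines were placed in 1536-well plates and kept overnight at 37 °C. Pinning then delivered five library-drug doses (not always all listed), spaced by √10, onto plates anchored with vehicle, and the cells were left 5 days without changing medium. One step fixed, permeabilised and stained them with Hoechst, and MetaXpress counted nuclei in 4× images. Viability, as a median over plates, is treated-well nuclei divided by vehicle-well nuclei, with acceptance only at control CV below 25% and at least one doubling.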

Row | Cell Line | relative viability (Omipalisib + Navitoclax; first compound 0.0003 µM) | relative viability (Omipalisib + Navitoclax; first compound 0.003 µM) | relative viability (Omipalisib + Navitoclax; first compound 0.03 µM) | relative viability (Omipalisib + Pictilisib; first compound 0.0003 µM) | relative viability (Omipalisib + Pictilisib; first compound 0.003 µM) | relative viability (Omipalisib + Pictilisib; first compound 0.03 µM) | relative viability (Omipalisib + Alpelisib; first compound 0.0003 µM) | relative viability (Omipalisib + Alpelisib; first compound 0.003 µM) | relative viability (Omipalisib + Alpelisib; first compound 0.03 µM) | relative viability (Omipalisib + Linsitinib; first compound 0.0003 µM) | relative viability (Omipalisib + Linsitinib; first compound 0.003 µM) | relative viability (Omipalisib + Linsitinib; first compound 0.03 µM) | relative viability (Omipalisib + Vorinostat; first compound 0.0003 µM) | relative viability (Omipalisib + Vorinostat; first compound 0.003 µM) | relative viability (Omipalisib + Vorinostat; first compound 0.03 µM) | relative viability (Omipalisib; 0.0003 µM) | relative viability (Omipalisib; 0.003 µM) | relative viability (Omipalisib; 0.03 µM)
1 | LU99A | 0.5 | 0.512 | 0.293 | 0.303 | 0.242 | 0.265 | 0.492 | 0.439 | 0.277 | 0.484 | 0.382 | 0.261 | 0.441 | 0.353 | 0.228 | 0.936 | 0.847 | 0.395
2 | LXF-289 | 0.947 | 1 | 0.739 | 0.772 | 0.684 | 0.671 | 1.06 | 1.02 | 0.792 | 0.961 | 1 | 0.793 | 0.771 | 0.905 | 0.561 | 1.04 | 1.08 | 0.943
3 | NCI-H23 | 0.748 | 0.421 | 0.35 | 0.45 | 0.373 | 0.401 | 0.596 | 0.444 | 0.381 | 0.596 | 0.397 | 0.346 | 0.541 | 0.297 | 0.234 | 0.913 | 0.594 | 0.464
4 | NCI-H322M | 1.21 | 0.823 | 0.515 | 0.467 | 0.577 | 0.313 | 1.07 | 0.77 | 0.452 | 0.971 | 0.72 | 0.506 | 0.922 | 0.765 | 0.622 | 0.892 | 0.728 | 0.622
5 | NCI-H441 | 0.547 | 0.527 | 0.552 | 0.428 | 0.354 | 0.351 | 0.585 | 0.588 | 0.441 | 0.569 | 0.382 | 0.394 | 0.783 | 0.526 | 0.399 | 0.832 | 0.574 | 0.427
6 | NCI-H460 | 1.06 | 0.61 | 0.143 | 0.419 | 0.254 | 0.316 | 0.362 | 0.241 | 0.0908 | 0.509 | 0.232 | 0.0381 | 0.653 | 0.617 | 0.0977 | 1 | 0.787 | 0.334
7 | NCI-H520 | 0.972 | 0.714 | 0.292 | 0.243 | 0.212 | 0.251 | 0.802 | 0.608 | 0.292 | 0.9 | 0.672 | 0.275 | 0.623 | 0.458 | 0.214 | 0.787 | 0.588 | 0.252
8 | NCI-H596 | 0.849 | 0.519 | 0.174 | 0.43 | 0.386 | 0.412 | 0.491 | 0.363 | 0.395 | 0.817 | 0.517 | 0.355 | 0.581 | 0.364 | 0.447 | 0.944 | 0.673 | 0.421
9 | NCI-H647 | 0.873 | 0.86 | 0.542 | 0.462 | 0.307 | 0.386 | 1.09 | 0.98 | 0.33 | 1.11 | 0.95 | 0.373 | 0.304 | 0.368 | 0.295 | 0.949 | 0.696 | 0.42
10 | NCI-H727 | 0.458 | 0.229 | 0.152 | 0.321 | 0.361 | 0.231 | 0.594 | 0.445 | 0.5 | 0.276 | 0.245 | 0.234 | 1.1 | 1.02 | 0.987 | 1.05 | 0.68 | 0.544
11 | NCI-H838 | 1.1 | 0.997 | 0.501 | 0.422 | 0.393 | 0.313 | 0.935 | 0.802 | 0.357 | 0.902 | 0.74 | 0.346 | 0.678 | 0.639 | 0.557 | 0.957 | 0.737 | 0.453
12 | NCI-H1355 | 0.931 | 0.538 | 0.343 | 0.499 | 0.295 | 0.297 | 0.716 | 0.55 | 0.336 | 0.737 | 0.584 | 0.358 | 0.646 | 0.396 | 0.232 | 0.945 | 0.664 | 0.578
13 | NCI-H1395 | 1.35 | 0.991 | 0.665 | 0.92 | 0.516 | 0.585 | 1 | 0.906 | 0.7 | 1.03 | 0.905 | 0.592 | 0.716 | 0.525 | 0.523 | 0.901 | 0.706 | 0.649
14 | NCI-H1437 | 1.03 | 0.974 | 0.517 | 0.436 | 0.308 | 0.319 | 0.92 | 0.707 | 0.45 | 0.952 | 0.824 | 0.404 | 0.948 | 0.75 | 0.448 | 1 | 0.837 | 0.398
15 | NCI-H1651 | 0.834 | 0.752 | 0.484 | 0.545 | 0.512 | 0.458 | 0.915 | 0.847 | 0.69 | 0.931 | 0.737 | 0.417 | 0.517 | 0.457 | 0.437 | 0.928 | 0.851 | 0.595
16 | NCI-H1666 | 0.808 | 0.597 | 0.398 | 0.406 | 0.335 | 0.186 | 0.968 | 0.718 | 0.509 | 0.689 | 0.719 | 0.41 | 1.02 | 0.881 | 0.815 | 1.01 | 0.818 | 0.651
